Measured values from US20100009852A1, “Plant growth regulator” (priority 2008, published 2010).
Values joined by “and” are separate entries in the source; they are usually repeats but may differ in a detail not shown here. Identical values can stand only once.

Tests used:
[1] = test system: maize (Zea mays—variety Oldham); assay: Root growth promotion: maize germination in a soil free test system; type: in vivo; details: for Fresh weight of harvested roots, Mean of 4 replicates / Fresh weight of harvested roots, single replicate: 13 days after sowing, Blank WP mean 317; for Fresh weight of harvested roots, single replicate: roots of 10 seeds per container
Procedure: 8 cm round filter papers were placed in 9.5 cm square clear plastic tissue culture containers (ICN Biomedicals, Inc). The paper in each of 4 containers were wetted with 2 ml of tap water containing 2500, 1250 or 625 ppm of cyprosulfamide provided as a 20% wettable powder formulation (WP). 4 further containers were wetted with tap water containing blank WP formulation (i.e. all components except cyprosulfamide). Into each Petri dish 10 seeds of maize (Zea mays—variety Oldham) were evenly spread and the lids put in place. The Petri dishes were placed in glasshouse set to 24° C.±2° C. day and 17° C.±2° C. night. High-pressure mercury lamps (400 W) were used to augment daylight during cloudy conditions. As required, small volumes of water were added to the Petri dishes as necessary to keep the filter paper moist. After 13 days the roots from all seeds per container were harvested by cutting as close to the base as possible. The fresh weight of roots was measured immediately.

[2] = test system: maize varieties (Cecilia and Abraxas); assay: Shoot growth regulation: glasshouse pot trial, plant height of 2 maize varieties; type: in vivo; details: for Mean plant height per pot, Mean of 8 replicates / Mean plant height per pot, single replicate: 25 days after sowing
Procedure: Three cyprosulfamide treatment methods (1 to 3) were used in a trial designed to investigate effects on shoot development. Treatment method 1 was a seed treatment. For this, fifty seeds each of two maize varieties ([…] and Abraxas) were weighed and placed into each of 50 ml glass screw cap bottles. To one of these bottles sufficient wettable powder formulation of cyprosulfamide (20% formulation) was added to provide 1 g of cyprosulfamide per 1000 g of seed. To the second bottle the same amount of a blank formulation (same components but lacking cyprosulfamide) was added. To each bottle 10 ml of deionised water was added the caps fitted. The bottles were then placed on a shaker for 20 minutes so that the seeds were evenly coated with the formulation. For methods 2 and 3, 240 peat pots (7 cm diameter) were filled to within 3 cm of the top with steam sterilised sandy-loam soil (20% sand, 57% silt, 23% clay, pH 6.8 and 1.4% organic matter). In addition, 120 Petri dishes (10 cm diameter) were filled (1 cm depth) with the same soil. The 20% wettable powder formulation of cyprosulfamide was dispersed in de-ionised water to produce the required concentration (ppm). 120 pots (Treatment 2) and the all 120 Petri dishes (Treatment 3) were placed on “feed-belt” of a track-sprayer. The spray solution of cyprosulfamide was placed into the spray vessel and applied to the target pots/dishes at a spray volume of 300 l/ha via a flat fan nozzle. This provided a dose rate equivalent to 1000 g of cyprosulfamide per hectare soil surface. For treatment method 1, five treated maize seed were sown onto 8 replicate untreated pots and covered with untreated soil. For treatment method 2, five untreated seeds were sown onto 8 replicate treated pots and covered with untreated soil. For treatment method 3, five untreated seeds were sown onto 8 replicate untreated pots and covered using the treated soil from the Petri dishes. Control (Treatment 4) had also untreated seeds on untreated soil. The placement of cyprosulfamide as a result of these treatment methods is shown in FIG. 1 All the pots were watered and placed in a glasshouse set to 24° C.±2° C. day and 17° C.±2° C. night. The relative humidity was normally above 60%. High-pressure mercury lamps (400 W) were used to augment daylight during cloudy conditions. Pots were watered as required. 25 days after sowing the height of each plant was measured from soil surface to tip of tallest leaf which was held up against a ruler.

[3] = variety Abraxas, treatment 1 = seed treatment, 1 g per 1000 g seed, untreated mean 36.0
[4] = variety Abraxas, treatment 2 = soil below seed, 1000 g per hectare, untreated mean 36.0
[5] = variety Abraxas, treatment 3 = soil above seed, 1000 g per hectare, untreated mean 36.0
[6] = variety Cecilia, treatment 1 = seed treatment, 1 g per 1000 g seed, untreated mean 55.3
[7] = variety Cecilia, treatment 2 = soil below seed, 1000 g per hectare, untreated mean 55.3
[8] = variety Cecilia, treatment 3 = soil above seed, 1000 g per hectare, untreated mean 55.3

Compound: COc1ccccc1C(=O)NS(=O)(=O)c1ccc(C(=O)NC2CC2)cc1 [cyprosulfamide]
- Fresh weight of harvested roots, Mean of 4 replicates ([1]; WP + 625 ppm a.i.): 620 mg
- Fresh weight of harvested roots, single replicate ([1]; WP + 625 ppm a.i.): 587 mg and 579 mg and 547 mg and 767 mg
- Fresh weight of harvested roots, Mean of 4 replicates ([1]; WP + 1250 ppm a.i.): 838 mg
- Fresh weight of harvested roots, single replicate ([1]; WP + 1250 ppm a.i.): 700 mg and 717 mg and 846 mg and 1087 mg
- Fresh weight of harvested roots, Mean of 4 replicates ([1]; WP + 2500 ppm a.i.): 778 mg
- Fresh weight of harvested roots, single replicate ([1]; WP + 2500 ppm a.i.): 918 mg and 1211 mg and 634 mg and 350 mg
- root development of germinating maize seed ([1]; in the presence of cyprosulfamide (625-2500 ppm) versus blank WP): significantly enhanced
- effect on plant height (statistical analysis) ([2]; all treatments (1 to 3) versus untreated, in Cecilia and Abraxas): significantly reduced plant height
- Mean plant height per pot, Mean of 8 replicates [2, 3]: 26.3 cm
- Mean plant height per pot, single replicate [2, 3]: 28.2 cm and 20.8 cm and 31.6 cm and 22.6 cm and 25.2 cm and 22.2 cm and 28.8 cm and 30.6 cm
- Mean plant height per pot, Mean of 8 replicates [2, 4]: 33.4 cm
- Mean plant height per pot, single replicate [2, 4]: 34.2 cm and 34.5 cm and 34.4 cm and 33.4 cm and 32.2 cm and 33.6 cm and 30.5 cm and 34.6 cm
- Mean plant height per pot, Mean of 8 replicates [2, 5]: 30.4 cm
- Mean plant height per pot, single replicate [2, 5]: 25.2 cm and 26.6 cm and 29.6 cm and 32.2 cm (2×) and 31.4 cm and 32.8 cm and 33.0 cm
- Mean plant height per pot, Mean of 8 replicates [2, 6]: 41.2 cm
- Mean plant height per pot, single replicate [2, 6]: 34.3 cm and 40.7 cm and 50.0 cm and 38.3 cm and 39.3 cm and 44.0 cm and 41.0 cm and 41.7 cm
- Mean plant height per pot, Mean of 8 replicates [2, 7]: 44.4 cm
- Mean plant height per pot, single replicate [2, 7]: 46.0 cm (2×) and 50.0 cm and 48.2 cm and 42.8 cm and 41.7 cm and 40.6 cm and 40.3 cm
- Mean plant height per pot, Mean of 8 replicates [2, 8]: 47.8 cm
- Mean plant height per pot, single replicate [2, 8]: 43.0 cm and 54.0 cm and 47.6 cm and 47.0 cm and 55.5 cm and 58.0 cm and 36.8 cm and 40.8 cm
